{"source": "paper PMC9234961", "about": "(Journal of Medicinal Chemistry, 2022)", "key": {"kinases (468) [1]": {"molecular_target": "kinases (468) (Homo sapiens, UniProt Q8NI60)", "sequence (Q8NI60 163-647)": "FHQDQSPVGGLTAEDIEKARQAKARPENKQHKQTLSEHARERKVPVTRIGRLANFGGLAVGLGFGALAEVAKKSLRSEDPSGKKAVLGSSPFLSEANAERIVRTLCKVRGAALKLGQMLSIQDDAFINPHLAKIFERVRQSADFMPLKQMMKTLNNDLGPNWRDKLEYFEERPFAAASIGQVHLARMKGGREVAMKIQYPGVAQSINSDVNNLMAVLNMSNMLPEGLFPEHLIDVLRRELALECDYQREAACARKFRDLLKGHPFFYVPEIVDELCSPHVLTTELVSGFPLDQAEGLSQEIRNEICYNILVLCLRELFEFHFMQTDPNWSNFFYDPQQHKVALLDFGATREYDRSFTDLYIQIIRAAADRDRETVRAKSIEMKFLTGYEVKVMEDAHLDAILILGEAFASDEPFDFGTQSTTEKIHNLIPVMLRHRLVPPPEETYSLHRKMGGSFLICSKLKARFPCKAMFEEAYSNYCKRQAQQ", "settings": "ADCK3 (CABC1); 1000 nM"}, "kinases (468) [2]": {"molecular_target": "kinases (468) (Homo sapiens, UniProt P00533, G719S)", "settings": "EGFR(G719S); 1000 nM"}, "kinases (468) [3]": {"molecular_target": "kinases (468) (Homo sapiens, UniProt Q00532)", "settings": "CDKL1; 1000 nM"}, "kinases (468) [4]": {"molecular_target": "kinases (468) (Homo sapiens, UniProt O95382)", "settings": "ASK2 (MAP3K6); 1000 nM"}, "kinases (468) [5]": {"molecular_target": "kinases (468) (Homo sapiens, UniProt Q52WX2)", "settings": "kinase SBK1 (Entrez SBK1); compound concentration 1000 nM"}, "kinases (468) [6]": {"molecular_target": "kinases (468) (Homo sapiens, UniProt P57059)", "settings": "kinase SIK (Entrez SIK1); compound concentration 1000 nM"}, "kinases (468) [7]": {"molecular_target": "kinases (468) (Homo sapiens, UniProt Q9H3Y6)", "settings": "kinase SRMS (Entrez SRMS); compound concentration 1000 nM"}, "kinases (468) [8]": {"molecular_target": "kinases (468) (Homo sapiens, UniProt Q00537)", "settings": "PCTK2 (CDK17); 1000 nM"}, "kinases (468) [9]": {"molecular_target": "kinases (468) (Homo sapiens, UniProt Q9UM73)", "settings": "ALK; 1000 nM"}, "kinases (468) [10]": {"molecular_target": "kinases (468) (Homo sapiens, UniProt P29320)", "settings": "EPHA3; 1000 nM"}, "kinases (468) [11]": {"molecular_target": "kinases (468) (Homo sapiens, UniProt Q13627)", "settings": "DYRK1A; 1000 nM"}, "kinases (468) [12]": {"molecular_target": "kinases (468) (Homo sapiens, UniProt O14920)", "settings": "IKK-beta (IKBKB); 1000 nM"}, "kinases (468) [13]": {"molecular_target": "kinases (468) (Homo sapiens, UniProt P0C1S8)", "settings": "kinase WEE2 (Entrez WEE2); compound concentration 1000 nM"}, "kinases (468) [14]": {"molecular_target": "kinases (468) (Homo sapiens, UniProt P24723)", "sequence (P24723 whole entry)": "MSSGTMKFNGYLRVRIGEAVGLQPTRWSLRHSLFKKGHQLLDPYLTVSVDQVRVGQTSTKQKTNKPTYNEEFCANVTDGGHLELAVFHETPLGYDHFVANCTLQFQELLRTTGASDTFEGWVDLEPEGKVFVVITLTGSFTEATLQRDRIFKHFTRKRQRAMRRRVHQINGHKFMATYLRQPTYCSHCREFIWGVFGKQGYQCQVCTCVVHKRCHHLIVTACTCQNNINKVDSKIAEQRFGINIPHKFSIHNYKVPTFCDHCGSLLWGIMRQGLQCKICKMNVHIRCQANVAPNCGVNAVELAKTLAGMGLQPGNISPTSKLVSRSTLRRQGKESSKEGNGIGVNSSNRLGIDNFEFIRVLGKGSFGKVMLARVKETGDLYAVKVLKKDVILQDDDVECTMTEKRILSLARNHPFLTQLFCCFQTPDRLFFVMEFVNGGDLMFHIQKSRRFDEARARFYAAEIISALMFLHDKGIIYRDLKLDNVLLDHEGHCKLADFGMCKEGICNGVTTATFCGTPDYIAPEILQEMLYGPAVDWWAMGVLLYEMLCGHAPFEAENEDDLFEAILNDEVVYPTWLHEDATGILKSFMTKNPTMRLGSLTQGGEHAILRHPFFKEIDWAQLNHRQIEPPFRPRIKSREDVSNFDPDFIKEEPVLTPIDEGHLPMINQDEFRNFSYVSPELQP", "settings": "PRKCH; 1000 nM"}, "kinases (468) [15]": {"molecular_target": "kinases (468) (Homo sapiens, UniProt Q9H4A3)", "sequence (Q9H4A3 whole entry)": "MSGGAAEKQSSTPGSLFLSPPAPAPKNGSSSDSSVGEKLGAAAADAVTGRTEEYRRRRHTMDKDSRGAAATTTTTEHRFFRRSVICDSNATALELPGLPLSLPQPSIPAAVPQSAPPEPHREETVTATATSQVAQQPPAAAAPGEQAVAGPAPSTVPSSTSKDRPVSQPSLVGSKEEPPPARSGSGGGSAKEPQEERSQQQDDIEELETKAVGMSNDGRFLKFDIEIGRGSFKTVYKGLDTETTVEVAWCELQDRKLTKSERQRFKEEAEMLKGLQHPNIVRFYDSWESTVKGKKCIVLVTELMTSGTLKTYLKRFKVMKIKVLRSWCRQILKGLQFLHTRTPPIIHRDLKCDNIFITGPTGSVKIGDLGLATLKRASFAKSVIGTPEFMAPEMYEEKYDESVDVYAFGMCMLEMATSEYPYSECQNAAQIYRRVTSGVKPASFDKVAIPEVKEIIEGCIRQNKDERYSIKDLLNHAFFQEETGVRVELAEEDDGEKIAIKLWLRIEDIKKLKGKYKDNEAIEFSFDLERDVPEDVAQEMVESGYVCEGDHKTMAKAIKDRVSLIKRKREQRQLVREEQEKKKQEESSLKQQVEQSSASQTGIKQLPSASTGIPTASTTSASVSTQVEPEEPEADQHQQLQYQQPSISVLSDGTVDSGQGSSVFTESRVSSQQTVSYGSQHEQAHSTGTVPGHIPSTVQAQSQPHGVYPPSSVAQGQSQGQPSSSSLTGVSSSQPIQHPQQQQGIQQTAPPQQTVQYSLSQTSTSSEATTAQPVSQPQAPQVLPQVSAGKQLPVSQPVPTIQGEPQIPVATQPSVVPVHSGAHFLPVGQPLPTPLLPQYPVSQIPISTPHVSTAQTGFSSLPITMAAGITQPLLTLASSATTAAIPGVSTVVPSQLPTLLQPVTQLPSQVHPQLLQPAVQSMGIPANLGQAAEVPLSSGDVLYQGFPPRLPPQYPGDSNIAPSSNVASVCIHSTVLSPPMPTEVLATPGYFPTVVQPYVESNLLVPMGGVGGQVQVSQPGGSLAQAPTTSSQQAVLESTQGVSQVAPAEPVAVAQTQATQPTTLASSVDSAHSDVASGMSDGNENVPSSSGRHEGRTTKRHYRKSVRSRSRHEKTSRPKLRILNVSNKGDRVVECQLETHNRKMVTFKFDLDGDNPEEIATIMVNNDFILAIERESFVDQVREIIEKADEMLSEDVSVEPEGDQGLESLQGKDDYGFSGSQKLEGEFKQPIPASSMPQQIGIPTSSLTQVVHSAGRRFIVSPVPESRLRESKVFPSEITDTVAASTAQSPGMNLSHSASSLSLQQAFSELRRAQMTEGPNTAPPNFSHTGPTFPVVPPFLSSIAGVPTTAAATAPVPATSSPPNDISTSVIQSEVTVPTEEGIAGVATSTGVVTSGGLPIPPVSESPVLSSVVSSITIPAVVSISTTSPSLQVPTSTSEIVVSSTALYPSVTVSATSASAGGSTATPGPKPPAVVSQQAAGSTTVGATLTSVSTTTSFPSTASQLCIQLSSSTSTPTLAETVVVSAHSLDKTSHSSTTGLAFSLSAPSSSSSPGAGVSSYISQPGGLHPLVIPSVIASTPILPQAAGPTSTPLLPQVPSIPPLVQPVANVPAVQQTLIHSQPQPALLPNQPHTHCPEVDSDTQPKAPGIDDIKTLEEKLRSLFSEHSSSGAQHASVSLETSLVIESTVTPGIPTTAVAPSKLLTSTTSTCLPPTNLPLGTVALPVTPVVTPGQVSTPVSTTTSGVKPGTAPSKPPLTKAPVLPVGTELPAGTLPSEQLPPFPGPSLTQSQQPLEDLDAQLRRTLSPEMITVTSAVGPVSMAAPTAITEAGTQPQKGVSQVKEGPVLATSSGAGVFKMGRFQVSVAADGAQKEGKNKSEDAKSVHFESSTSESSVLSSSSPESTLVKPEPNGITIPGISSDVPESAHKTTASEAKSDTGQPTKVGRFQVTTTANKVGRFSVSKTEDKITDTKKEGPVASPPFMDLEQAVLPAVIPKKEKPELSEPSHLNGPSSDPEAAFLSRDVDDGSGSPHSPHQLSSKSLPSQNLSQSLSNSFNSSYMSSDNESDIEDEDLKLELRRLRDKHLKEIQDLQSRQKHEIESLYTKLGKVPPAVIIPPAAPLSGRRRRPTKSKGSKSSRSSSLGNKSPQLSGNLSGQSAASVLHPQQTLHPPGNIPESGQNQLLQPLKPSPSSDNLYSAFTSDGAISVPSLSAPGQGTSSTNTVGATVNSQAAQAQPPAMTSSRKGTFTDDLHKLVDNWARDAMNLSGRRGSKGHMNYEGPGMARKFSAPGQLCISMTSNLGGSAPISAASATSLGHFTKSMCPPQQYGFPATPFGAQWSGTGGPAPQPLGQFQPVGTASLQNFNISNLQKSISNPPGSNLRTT", "settings": "kinase WNK1 (Entrez WNK1); compound concentration 1000 nM"}, "kinases (468) [16]": {"molecular_target": "kinases (468) (Homo sapiens, UniProt Q15831)", "settings": "LKB1 (STK11); 1000 nM"}, "kinases (468) [17]": {"molecular_target": "kinases (468) (Homo sapiens, UniProt P36896)", "settings": "ACVR1B; 1000 nM"}, "kinases (468) [18]": {"molecular_target": "kinases (468) (Homo sapiens, UniProt O14578)", "settings": "CIT; 1000 nM"}, "kinases (468) [19]": {"molecular_target": "kinases (468) (Homo sapiens, UniProt P00533)", "settings": "EGFR; 1000 nM"}, "kinases (468) [20]": {"molecular_target": "kinases (468) (Homo sapiens, UniProt Q6XUX3)", "settings": "kinase RIPK5 (Entrez DSTYK); compound concentration 1000 nM"}, "kinases (468) [21]": {"molecular_target": "kinases (468) (Homo sapiens, UniProt P27448)", "sequence (P27448 whole entry)": "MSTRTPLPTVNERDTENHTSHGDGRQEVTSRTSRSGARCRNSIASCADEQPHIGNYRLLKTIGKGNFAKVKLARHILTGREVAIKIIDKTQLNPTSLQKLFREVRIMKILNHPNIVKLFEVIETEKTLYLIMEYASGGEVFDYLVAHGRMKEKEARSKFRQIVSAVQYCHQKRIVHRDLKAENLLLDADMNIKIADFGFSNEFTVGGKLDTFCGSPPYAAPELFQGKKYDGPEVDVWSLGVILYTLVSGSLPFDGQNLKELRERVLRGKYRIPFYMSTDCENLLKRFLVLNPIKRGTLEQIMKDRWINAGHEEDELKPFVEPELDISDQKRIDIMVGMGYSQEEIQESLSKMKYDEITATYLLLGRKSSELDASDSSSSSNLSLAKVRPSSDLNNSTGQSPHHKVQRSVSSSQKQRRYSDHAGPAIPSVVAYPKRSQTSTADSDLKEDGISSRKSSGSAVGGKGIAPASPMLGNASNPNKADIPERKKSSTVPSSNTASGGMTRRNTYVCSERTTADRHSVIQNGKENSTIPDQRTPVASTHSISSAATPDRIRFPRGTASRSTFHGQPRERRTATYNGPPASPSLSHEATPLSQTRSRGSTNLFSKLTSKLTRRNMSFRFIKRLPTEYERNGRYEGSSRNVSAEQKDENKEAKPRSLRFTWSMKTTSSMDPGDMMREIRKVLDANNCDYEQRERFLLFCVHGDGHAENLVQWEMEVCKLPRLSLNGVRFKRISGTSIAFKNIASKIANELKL", "settings": "MARK3; 1000 nM"}, "kinases (468) [22]": {"molecular_target": "kinases (468) (Homo sapiens, UniProt Q9P289)", "settings": "MST4; 1000 nM"}, "kinases (468) [23]": {"molecular_target": "kinases (468) (Homo sapiens, UniProt Q02779)", "settings": "MLK2 (MAP3K10); 1000 nM"}, "kinases (468) [24]": {"molecular_target": "kinases (468) (Homo sapiens, UniProt P36888, D835V)", "settings": "FLT3(D835V); 1000 nM"}, "kinases (468) [25]": {"molecular_target": "kinases (468) (Homo sapiens, UniProt P12931)", "settings": "kinase SRC (Entrez SRC); compound concentration 1000 nM"}, "kinases (468) [26]": {"molecular_target": "kinases (468) (Homo sapiens, UniProt P46734)", "settings": "MEK3 (MAP2K3); 1000 nM"}, "kinases (468) [27]": {"molecular_target": "kinases (468) (Homo sapiens, UniProt Q6P3R8)", "settings": "NEK5; 1000 nM"}, "kinases (468) [28]": {"molecular_target": "kinases (468) (Homo sapiens, UniProt Q8NFD2)", "settings": "ANKK1; 1000 nM"}, "kinases (468) [29]": {"molecular_target": "kinases (468) (Homo sapiens, UniProt Q9NYL2)", "settings": "kinase ZAK (Entrez ZAK); compound concentration 1000 nM"}, "kinases (468) [30]": {"molecular_target": "kinases (468) (Homo sapiens, UniProt Q9UEW8)", "settings": "kinase STK39 (Entrez STK39); compound concentration 1000 nM"}, "kinases (468) [31]": {"molecular_target": "kinases (468) (Homo sapiens, UniProt P07949, V804L)", "settings": "kinase RET(V804L) (Entrez RET); compound concentration 1000 nM"}, "kinases (468) [32]": {"molecular_target": "kinases (468) (Homo sapiens, UniProt P42336, I800L)", "settings": "PIK3CA(I800L); 1000 nM"}, "kinases (468) [33]": {"molecular_target": "kinases (468) (Homo sapiens, UniProt Q32MK0)", "sequence (Q32MK0 whole entry)": "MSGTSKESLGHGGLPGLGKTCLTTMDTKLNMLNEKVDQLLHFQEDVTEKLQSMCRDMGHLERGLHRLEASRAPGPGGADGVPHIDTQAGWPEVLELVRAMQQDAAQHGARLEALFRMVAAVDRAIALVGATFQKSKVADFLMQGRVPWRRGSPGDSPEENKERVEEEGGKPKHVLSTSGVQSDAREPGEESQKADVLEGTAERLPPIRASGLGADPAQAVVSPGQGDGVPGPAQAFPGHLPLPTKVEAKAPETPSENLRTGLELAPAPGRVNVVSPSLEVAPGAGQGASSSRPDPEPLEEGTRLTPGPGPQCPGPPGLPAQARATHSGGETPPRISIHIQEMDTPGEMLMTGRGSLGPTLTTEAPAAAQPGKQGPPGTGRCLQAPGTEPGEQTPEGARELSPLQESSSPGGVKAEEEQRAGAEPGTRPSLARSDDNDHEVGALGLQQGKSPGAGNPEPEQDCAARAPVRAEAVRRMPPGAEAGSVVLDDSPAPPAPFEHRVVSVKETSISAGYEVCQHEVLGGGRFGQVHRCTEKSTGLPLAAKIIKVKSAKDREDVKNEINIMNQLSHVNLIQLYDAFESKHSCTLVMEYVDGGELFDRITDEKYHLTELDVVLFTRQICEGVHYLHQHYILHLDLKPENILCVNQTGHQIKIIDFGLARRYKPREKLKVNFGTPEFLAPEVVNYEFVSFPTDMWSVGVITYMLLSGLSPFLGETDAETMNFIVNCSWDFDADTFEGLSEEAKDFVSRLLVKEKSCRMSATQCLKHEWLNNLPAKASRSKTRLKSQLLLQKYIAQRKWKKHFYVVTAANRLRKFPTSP", "settings": "MLCK (MYLK3); 1000 nM"}, "kinases (468) [34]": {"molecular_target": "kinases (468) (Homo sapiens, UniProt Q13470)", "settings": "kinase TNK1 (Entrez TNK1); compound concentration 1000 nM"}}, "data": [{"compound": "C[C@H]1C[C@@H](O)CN(c2ncc(Cl)c(Nc3ccc4c(c3)c3c(c(=O)n4C)OCC(F)(F)[C@H](C4CC4)N3)n2)C1", "note": "[CCT373566_9A]", "values": [{"measurement": "Percent Control", "setting": "kinases (468) [1]", "result": 100, "unit": "%"}, {"measurement": "Percent Control", "setting": "kinases (468) [2]", "result": 100, "unit": "%"}, {"measurement": "Percent Control", "setting": "kinases (468) [3]", "result": 97, "unit": "%"}, {"measurement": "Percent Control", "setting": "kinases (468) [4]", "result": 98, "unit": "%"}, {"measurement": "Percent Control", "setting": "kinases (468) [5]", "result": 99, "unit": "%"}, {"measurement": "Percent Control", "setting": "kinases (468) [6]", "result": 98, "unit": "%"}, {"measurement": "Percent Control", "setting": "kinases (468) [7]", "result": 90, "unit": "%"}, {"measurement": "Percent Control", "setting": "kinases (468) [8]", "result": 95, "unit": "%"}, {"measurement": "Percent Control", "setting": "kinases (468) [9]", "result": 98, "unit": "%"}, {"measurement": "Percent Control", "setting": "kinases (468) [10]", "result": 85, "unit": "%"}, {"measurement": "Percent Control", "setting": "kinases (468) [11]", "result": 95, "unit": "%"}, {"measurement": "Percent Control", "setting": "kinases (468) [12]", "result": 91, "unit": "%"}, {"measurement": "Percent Control", "setting": "kinases (468) [13]", "result": 93, "unit": "%"}, {"measurement": "Percent Control", "setting": "kinases (468) [14]", "result": 94, "unit": "%"}, {"measurement": "Percent Control", "setting": "kinases (468) [15]", "result": 100, "unit": "%"}, {"measurement": "Percent Control", "setting": "kinases (468) [16]", "result": 65, "unit": "%"}, {"measurement": "Percent Control", "setting": "kinases (468) [17]", "result": 100, "unit": "%"}, {"measurement": "Percent Control", "setting": "kinases (468) [18]", "result": 99, "unit": "%"}, {"measurement": "Percent Control", "setting": "kinases (468) [19]", "result": 100, "unit": "%"}, {"measurement": "Percent Control", "setting": "kinases (468) [20]", "result": 90, "unit": "%"}, {"measurement": "Percent Control", "setting": "kinases (468) [21]", "result": 89, "unit": "%"}, {"measurement": "Percent Control", "setting": "kinases (468) [22]", "result": 100, "unit": "%"}, {"measurement": "Percent Control", "setting": "kinases (468) [23]", "result": 100, "unit": "%"}, {"measurement": "Percent Control", "setting": "kinases (468) [24]", "result": 90, "unit": "%"}, {"measurement": "Percent Control", "setting": "kinases (468) [25]", "result": 100, "unit": "%"}, {"measurement": "Percent Control", "setting": "kinases (468) [26]", "result": 100, "unit": "%"}, {"measurement": "Percent Control", "setting": "kinases (468) [27]", "result": 100, "unit": "%"}, {"measurement": "Percent Control", "setting": "kinases (468) [28]", "result": 95, "unit": "%"}, {"measurement": "Percent Control", "setting": "kinases (468) [29]", "result": 98, "unit": "%"}, {"measurement": "Percent Control", "setting": "kinases (468) [30]", "result": 98, "unit": "%"}, {"measurement": "Percent Control", "setting": "kinases (468) [31]", "result": 100, "unit": "%"}, {"measurement": "Percent Control", "setting": "kinases (468) [32]", "result": 82, "unit": "%"}, {"measurement": "Percent Control", "setting": "kinases (468) [33]", "result": 100, "unit": "%"}, {"measurement": "Percent Control", "setting": "kinases (468) [34]", "result": 92, "unit": "%"}]}]}
